Measurements reported in paper PMC12308784, “Organometallic Half-Sandwich Complexes of 1,10-Phenanthroline Derivatives with Improved Solubility, Albumin-Binding, and Nanoformulation Potential Targeting Drug Resistance in Cancer” (Inorganic Chemistry, 2025).
Like-named read-outs stand apart in the source and are kept apart here. Marks after values point to notes of the source that are not given here.

Tests used:
[1] = test system: MDA-MB-231, MCF-7 and T-47D breast cancer cell lines; experiment: PrestoBlue cytotoxicity, range over the three breast cancer lines; type: cell-based; details: MDA-MB-231, MCF-7, T-47D; 72 h
Protocol: The PHEN-derived ligands (DCP, BP) (together with PHEN for comparison) and the isolated complexes ([RuCym(DCP)-Cl]-Cl, [RhCp*(DCP)-Cl]-Cl, [RuCym(BP)-Cl]-Cl, [RhCp*(BP)-Cl]-Cl) were tested against the estrogen receptor (ER) negative MDA-MB-231, and the ER positive MCF-7 and T-47D breast cancer cell lines (Table , and Figure a for easier comparison).
(§1) MDA-MB-231 breast adenocarcinoma and MCF-7 and T-47D invasive breast carcinomas were purchased from the Developmental Therapeutic Program of the National Cancer Institute (NIH, USA), and they were cultured in RPMI medium (Thermo Fisher). MES–SA and MES–SA/Dx5 uterine sarcoma cell lines were purchased from American Type Culture Collection and were kept in DMEM (Thermo Fisher). MES–SA/B1 was created by the transfection of the human MDR1 gene in MES–SA, and MES–SA mCherry, MES–SA/B1 mOrange, and MES–SA/Dx5 eGFP were engineered to stably express the respective fluorescent proteins, as described previously. Culture media were supplemented with 10% fetal bovine serum, 2 mM L-glutamine, 100 units/mL penicillin, and 100 μg/mL streptomycin (Thermo Fisher). Cells were kept at 37 °C under 5% CO2 and were negative for mycoplasma infection.
(§2) Cytotoxicity of the nonfluorescent cancer cells (MDA-MB-231, MCF-7, T-47D) were assessed with PrestoBlue cell viability reagent (Thermo Fisher). Briefly, 2500 cells/well were seeded on 384-well plates, and then the next day drugs were added. After 72 h incubation, PrestoBlue was added in a 10% final concentration, and after an hour of additional incubation, plates were measured with a PerkinElmer EnSpire plate reader at 555 nm/585 nm excitation/emission wavelengths. Fluorescent cells (MES-SA mCherry, MES-SA/B1 mOrange, MES-SA/Dx5 eGFP) were admixed before seeding on 384-well plates at 800 cells/well density each, thus altogether 2400 cells/well. Drugs were added the following day, and the intensity of the fluorescent proteins were measured after 144 h incubation at the respective fluorescent channels (excitation/emission: eGFP: 485 nm/510 nm; mCherry: 585 nm/610 nm; mOrange: 545 nm/567 nm). pIC50 values were calculated by a custom program written by Judit Sessler in C#. IC50 values and standard deviation were calculated from average pIC50 values from at least 3 independent measurements.

[2] = test system: T47D; experiment: PrestoBlue cytotoxicity assay; type: cell-based
Protocol: as §1
as §2, with “measurements. Since the IC50 values were obtained through nonlinear regression fitting of the viability vs. log(concentration) data, the resulting confidence intervals are inherently asymmetric (see pIC50 values and their corresponding SD in Tables S5 and S6).” for “measurements.”

[3] = test system: MCF-7; experiment: PrestoBlue cytotoxicity assay; type: cell-based
Protocol: as §1
as §2, with “measurements. Since the IC50 values were obtained through nonlinear regression fitting of the viability vs. log(concentration) data, the resulting confidence intervals are inherently asymmetric (see pIC50 values and their corresponding SD in Tables S5 and S6).” for “measurements.”

[4] = test system: MDA-MB-231; experiment: PrestoBlue cytotoxicity assay; type: cell-based
Protocol: as §1
as §2, with “measurements. Since the IC50 values were obtained through nonlinear regression fitting of the viability vs. log(concentration) data, the resulting confidence intervals are inherently asymmetric (see pIC50 values and their corresponding SD in Tables S5 and S6).” for “measurements.”

[5] = test system: MES-SA/Dx5-eGFP; experiment: fluorescent triple coculture cytotoxicity assay; type: cell-based, human; details: 384-well plate; for SR (MES-SA/Dx5): selectivity ratio versus parental MES-SA
Description: (§3) Cytotoxicity of the compounds were further tested also in an in vitro MDR model system, consisting of an MES-SA uterine sarcoma cell line, and its P-gp (ABCB1) overexpressing variants MES-SA/B1, that was genetically engineered to express P-gp, and MES-SA/Dx5, which acquired a P-gp-mediated MDR phenotype due to selection in doxorubicin. , The expression of different fluorescent proteins in each line (mCherry, mOrange, or eGFP) allowed coculturing of these three cell lines, providing more relevant data compared to monocultures, as the interaction between parental and resistant phenotypes is reflected in cytotoxicity.
(§4) Cytotoxicity of nanoformulated [RhCp*(BP)-Cl]-Cl with cross-linked HSA and HTP carriers was tested against the previously introduced triple coculture of fluorescent MES-SA cells with a slight difference. Namely, the media containing the dissolved products were removed from the wells, and fresh media was added prior to the measurement as the presence of cross-linked HSA and HTP formulations interfered with the fluorescence of the cells.
as §1
as §2, with “Fluorescent cells (MES-SA mCherry, MES-SA/B1 mOrange, MES-SA/Dx5 eGFP) were admixed before seeding on 384-well plates at 800 cells/well density each, thus altogether 2400 cells/well.” left out, “measurements. Since the IC50 values were obtained through nonlinear regression fitting of the viability vs. log(concentration) data, the resulting confidence intervals are inherently asymmetric (see pIC50 values and their corresponding SD in Tables S5 and S6).” for “measurements.”

[6] = test system: MES-SA mCherry; experiment: fluorescent triple coculture cytotoxicity assay; type: cell-based, human; details: 384-well plate
Description: as §3, §4, §1
as §2, with “Fluorescent cells (MES-SA mCherry, MES-SA/B1 mOrange, MES-SA/Dx5 eGFP) were admixed before seeding on 384-well plates at 800 cells/well density each, thus altogether 2400 cells/well.” left out, “measurements. Since the IC50 values were obtained through nonlinear regression fitting of the viability vs. log(concentration) data, the resulting confidence intervals are inherently asymmetric (see pIC50 values and their corresponding SD in Tables S5 and S6).” for “measurements.”

[7] = test system: MES-SA/B1-mOrange; experiment: fluorescent triple coculture cytotoxicity assay; type: cell-based, human; details: 384-well plate; for SR (MES-SA/B1): selectivity ratio versus parental MES-SA
Description: as §3, §4, §1
as §2, with “Fluorescent cells (MES-SA mCherry, MES-SA/B1 mOrange, MES-SA/Dx5 eGFP) were admixed before seeding on 384-well plates at 800 cells/well density each, thus altogether 2400 cells/well.” left out, “measurements. Since the IC50 values were obtained through nonlinear regression fitting of the viability vs. log(concentration) data, the resulting confidence intervals are inherently asymmetric (see pIC50 values and their corresponding SD in Tables S5 and S6).” for “measurements.”

[8] = molecular target: T1, human serum albumin (HSA), Trp-214 in Sudlow’s site I (Homo sapiens, UniProt P02768); details: cited from earlier work; for logK Q′ (quenching constant): organometallic precursors, PBS’, t = 25 °C
T1 construct: purchased Sigma-Aldrich A8763
T1 sequence (P02768 25-609): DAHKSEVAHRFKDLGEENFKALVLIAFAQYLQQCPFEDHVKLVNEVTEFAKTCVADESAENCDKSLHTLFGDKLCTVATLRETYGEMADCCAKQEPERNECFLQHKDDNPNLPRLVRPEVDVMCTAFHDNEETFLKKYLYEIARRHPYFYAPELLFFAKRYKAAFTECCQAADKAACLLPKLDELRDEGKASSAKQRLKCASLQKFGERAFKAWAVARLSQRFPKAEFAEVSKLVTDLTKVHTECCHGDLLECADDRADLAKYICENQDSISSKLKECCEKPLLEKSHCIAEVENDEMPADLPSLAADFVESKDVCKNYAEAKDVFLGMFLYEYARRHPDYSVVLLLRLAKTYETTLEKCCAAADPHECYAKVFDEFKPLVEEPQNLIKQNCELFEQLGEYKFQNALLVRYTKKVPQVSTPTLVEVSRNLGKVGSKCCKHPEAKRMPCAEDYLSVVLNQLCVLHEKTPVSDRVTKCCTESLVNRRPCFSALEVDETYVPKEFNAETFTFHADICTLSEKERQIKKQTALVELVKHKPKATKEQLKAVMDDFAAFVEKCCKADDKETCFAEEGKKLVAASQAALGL

[9] = molecular target: T2, HSA Sudlow’s site I (IIA subdomain) (Homo sapiens, UniProt P02768); details: organometallic precursors; PBS’; t = 25 °C; ref footnote a (ref 56); cited from earlier work
T2 construct: purchased Sigma-Aldrich A8763
T2 sequence (P02768 25-609): as above

[10] = Homo sapiens, 72 h, 384-well plate, read-out: IC50
[11] = Homo sapiens, Table S5, read-out: pIC50 (mean) (converted)
[12] = Homo sapiens, MES-SA/Dx5-eGFP, coculture, 144 h, read-out: IC50
[13] = Homo sapiens, Mes-Sa/Dx5 eGFP, Table S6, read-out: pIC50 (mean) (converted)
[14] = Homo sapiens, MES-SA, 144 h, MES-SA mCherry, coculture, 144 h, read-out: IC50
[15] = Homo sapiens, MES-SA, Mes-Sa mCherry, Table S6, read-out: pIC50 (mean) (converted)
[16] = MES-SA mCherry, coculture, 144 h, read-out: IC50
[17] = Homo sapiens, MES-SA/B1-mOrange, coculture, 144 h, read-out: IC50
[18] = Homo sapiens, Mes-Sa/B1 mOrange, Table S6, read-out: pIC50 (mean) (converted)
[19] = 72 h, 384-well plate, read-out: IC50

c1cnc2c(c1)ccc1cccnc12 [PHEN, 1,10-phenanthroline]
IC50 [1]: 3200 to 8600 nM | IC50 [2, 10]: 5470 nM | IC50 [2, 11]: 5500 nM | IC50 ([3]; Homo sapiens, MCF7, 72 h, 384-well plate, read-out: IC50): 8570 nM | IC50 ([3]; Homo sapiens, MCF7, Table S5, read-out: pIC50 (mean) (converted)): 8510 nM | IC50 [4, 10]: 3200 nM | IC50 [4, 11]: 3160 nM | IC50 [5, 12]: 410 nM | IC50 [5, 13]: 417 nM | SR (MES-SA/Dx5) [5]: 7.1 | IC50 [6, 14]: 3000 nM | IC50 [6, 15]: 2950 nM | IC50 [6, 16]: 2950 nM | IC50 [7, 17]: 1390 nM | IC50 [7, 18]: 1380 nM | SR (MES-SA/B1) [7]: 2.1

[Ru].c1cnc2c(c1)ccc1cccnc12.c1cnc2c(c1)ccc1cccnc12.c1cnc2c(c1)ccc1cccnc12 [[Ru(PHEN)3]^2+]
interaction with HSA ([8]; ref number not given): negligible interaction

N.N.[Cl][Pt][Cl] [cisplatin]
IC50 [1]: 3200 to 7000 nM | IC50 [2, 19]: 6980 nM | pIC50 (mean) ([2]; Table S5): 5.16 | IC50 [3, 19]: 4780 nM | pIC50 (mean) ([3]; Table S5): 5.32 | IC50 [4, 19]: 3160 nM | pIC50 (mean) ([4]; Table S5): 5.50 | IC50 ([5]; MES-SA/Dx5-eGFP, coculture, 144 h, read-out: IC50): 4280 nM | pIC50 (mean) ([5]; Mes-Sa/Dx5 eGFP, Table S6): 5.37 | SR (MES-SA/Dx5) [5]: 0.3 | IC50 [6, 16]: 1490 nM | pIC50 (mean) ([6]; Mes-Sa mCherry, Table S6): 5.83 | IC50 ([7]; MES-SA/B1-mOrange, coculture, 144 h, read-out: IC50): 1710 nM | pIC50 (mean) ([7]; Mes-Sa/B1 mOrange, Table S6): 5.77 | SR (MES-SA/B1) [7]: 0.9

COc1cc([C@@H]2c3cc4c(cc3[C@@H](O[C@@H]3O[C@@H]5CO[C@@H](C)O[C@H]5[C@H](O)[C@H]3O)[C@H]3COC(=O)[C@H]23)OCO4)cc(OC)c1O [etoposide]
IC50 [5, 12]: 2080 nM | IC50 [5, 13]: 2090 nM | resistance of MES-SA/Dx5 versus parental line ([5]; coculture): 10 fold | SR (MES-SA/Dx5) [5]: 0.1 | IC50 [6, 14]: 200 nM | IC50 [6, 15]: 200 nM | IC50 [7, 17]: 1190 nM | IC50 [7, 18]: 1170 nM | resistance of MES-SA/B1 versus parental line ([7]; coculture): 6 fold | SR (MES-SA/B1) [7]: 0.2

[Rh(η^5-C5Me5)Cl2]2 [RhCp*precursor]
logK Q′ (quenching constant) [8]: 5.8 ^a | logK Q′ (quenching constant) ([8]; listed as precursor RhCp*): 5.8 | logK WF′ (WF displacement constant) [9]: 6.1 ^a

[Ru(η^6-p-cymene)Cl2]2 [RuCym precursor]
logK Q′ (quenching constant) [8]: 5.7 ^a | logK WF′ (WF displacement constant) [9]: 5.9 ^a
